# Assay results taken from patent US20240381872A1, “SUBSTITUTED 2,3-DIHYDRO[1,3]THIAZOLO[4,5-B]PYRIDINES, SALTS THEREOF AND THEIR USE AS HERBICIDALLY ACTIVE SUBSTANCES” (BAYER AKTIENGESELLSCHAFT, priority 2021, published 2024).
# Key:
# Format in all cases: in vivo
# [1] = test system: Alopecurus myosuroides (ALOMY); experiment: Herbicidal post-emergence action, section E (Table E2); conditions: application rate 320 g/ha, assessed visually after ca. 3 weeks
# How it was run: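 Plants grown from seed in sandy loam in a greenhouse were sprayed at the single-leaf stage, 2 to 3 weeks after sowing, with WP or EC formulations in water plus 0.5% additive at 600 l water/ha. Damage was scored visually after ca. 3 weeks versus untreated controls (0% = as control, 100% = dead).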
# Lolium rigidum (LOLRI) = experiment: Herbicidal pre-emergence action, section C (Table C5); conditions: visual grading after ca. 3 weeks; for pre-emergence activity against LOLRI in %: application rate 320 g/ha
# How it was run: (§1)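 Seeds sown in sandy loam and covered with soil; compounds formulated as WP or EC were sprayed onto the covering soil as aqueous suspension/emulsion with 0.5% additive at 600 l water/ha. Pots kept in greenhouse under optimum conditions; damage graded visually after ca. 3 weeks versus untreated controls (0–100%).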
# [2] = test system: Alopecurus myosuroides (ALOMY); experiment: Herbicidal pre-emergence action, section A (Table A2); conditions: application rate 1280 g/ha; visual grading after ca. 3 weeks vs untreated controls
# How it was run: (§2)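 In this greenhouse test, sown seeds under soil cover received the compounds as suspensions or emulsions, with 0.5% additive, at 600 l water/ha before emergence. Damage was assessed by eye after about 3 weeks, compared with untreated controls.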
# [3] = test system: Amaranthus retroflexus (AMARE); experiment: Herbicidal post-emergence action, section E (Table E3); conditions: application rate 320 g/ha, assessed visually after ca. 3 weeks
# Text: (§3) Seeds of mono- and dicotyledonous weed plants and crop plants were sown, in plastic or organic planting pots, in sandy loam, covered with soil and grown in a greenhouse under controlled growth conditions. 2 to 3 weeks after sowing, the test plants were sprayed in the single-leaf stage. The compounds according to the invention, formulated in form of wettable powders (WP) or as emulsifiable concentrates (EC), were sprayed onto the green plant parts as aqueous suspension or emulsion, with the addition of 0.5% of an additive, at an application rate of 600 l of water/ha (converted). The test plants were placed in the greenhouse for ca. 3 weeks under optimum growth conditions, and then the effect of the preparations was assessed visually in comparison with untreated controls (herbicidal effect in percent (%): 100% effect=plants have died off, 0% effect=as control plants).
# [4] = test system: Echinochloa crus-galli (ECHCG); experiment: Herbicidal pre-emergence action, section C (Table C3); conditions: visual grading after ca. 3 weeks vs untreated controls
# How it was run: as §1
# [5] = test system: Matricaria inodora (MATIN); experiment: Herbicidal pre-emergence action, section A (Table A6); conditions: visual grading after ca. 3 weeks vs untreated controls
# How it was run: as §2
# [6] = test system: Amaranthus retroflexus (AMARE); experiment: Herbicidal pre-emergence action, section A (Table A11)
# How it was run: as §2
# Glycine max (GLXMA) = experiment: Post-emergence effects on crop plants, section F (Table F4); conditions: application rate 80 g/ha; for post-emergence activity against GLXMA in %: crop plant damage
# How it was run: (§4)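 Crop seeds were sown in sandy loam in pots and greenhouse-grown; at the single-leaf stage, 2 to 3 weeks after sowing, plants were sprayed with WP or EC formulations plus 0.5% additive at 600 l water/ha, 320 g/ha or below. Damage was scored visually about 3 weeks later versus untreated controls (0–100%).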
# Setaria viridis (SETVI) [7] = experiment: Herbicidal pre-emergence action, section A (Table A8)
# How it was run: as §2
# [8] = test system: Digitaria sanguinalis (DIGSA); experiment: Herbicidal pre-emergence action, section A (Table A12); conditions: application rate 320 g/ha
# How it was run: as §2
# [9] = test system: Echinochloa crus-galli (ECHCG); experiment: Herbicidal post-emergence action, section E (Table E5); conditions: application rate 320 g/ha, visual assessment ca. 3 weeks after spraying
# Text: as §3
# Zea mays (ZEAMX) = experiment: Post-emergence effects on crop plants, section F (Table F1); conditions: application rate 320 g/ha
# How it was run: as §4
# Setaria viridis (SETVI) [10] = experiment: Herbicidal pre-emergence action, section C (Table C8); conditions: visual grading after ca. 3 weeks
# How it was run: as §1
compound,measurement,setting,value
COC(=O)CCC(=O)N1CSc2cc(C)c(-c3ccccc3F)nc21 [Example I-010],post-emergence activity against ALOMY in %,[1],80%
same,pre-emergence activity against LOLRI in %,Lolium rigidum (LOLRI),100%
same,pre-emergence activity against ALOMY in %,[2],100%
same,post-emergence activity against AMARE in %,[3],80%
same,pre-emergence activity against ECHCG in %,[4]; application rate 80 g/ha,100%
same,pre-emergence activity against MATIN in %,[5]; application rate 320 g/ha,90%
same,pre-emergence activity against AMARE in %,[6]; application rate 1280 g/ha,100%
same,post-emergence activity against GLXMA in %,Glycine max (GLXMA),0%
same,pre-emergence activity against SETVI in %,Setaria viridis (SETVI) [7]; application rate 1280 g/ha,100%
same,pre-emergence activity against DIGSA in %,[8],100%
same,post-emergence activity against ECHCG in %,[9],90%
CC1(C(=O)N2CSc3cc(Br)c(-c4ccccc4)nc32)CC(Cl)=NO1 (centres unmarked) [Example I-139],post-emergence activity against ALOMY in %,[1],80%
same,pre-emergence activity against LOLRI in %,Lolium rigidum (LOLRI),80%
same,pre-emergence activity against ALOMY in %,[2],90%
same,post-emergence activity against AMARE in %,[3],90%
same,pre-emergence activity against ECHCG in %,[4]; application rate 320 g/ha,100%
same,pre-emergence activity against MATIN in %,[5]; application rate 1280 g/ha,90%
same,post-emergence activity against ZEAMX in %,Zea mays (ZEAMX); crop plant damage,0%
same,pre-emergence activity against AMARE in %,[6]; application rate 320 g/ha,100%
same,post-emergence activity against GLXMA in %,Glycine max (GLXMA),20%
same,pre-emergence activity against SETVI in %,Setaria viridis (SETVI) [7]; application rate 320 g/ha,100%
same,pre-emergence activity against SETVI in %,Setaria viridis (SETVI) [10]; application rate 320 g/ha,100%
same,pre-emergence activity against DIGSA in %,[8],100%
same,post-emergence activity against ECHCG in %,[9],90%
"Fc1ccccc1-c1nc2c(cc1Br)SCN2 [Example I-001, 6-bromo-5-(2-fluorophenyl)-2,3-dihydro[1,3]thiazolo[4,5-b]pyridine]",pest or weed control at 320 g/ha,"[1]; Alopecurus myosuroides, post-emergence, 504 h, read-out: post-emergence activity against ALOMY in %",90%
same,pest or weed control at 80 g/ha,"Lolium rigidum (LOLRI); Lolium rigidum, pre-emergence, 504 h, application rate 80 g/ha, read-out: pre-emergence activity against LOLRI in %",100%
same,pest or weed control at 320 g/ha,"[3]; Amaranthus retroflexus, post-emergence, 504 h, read-out: post-emergence activity against AMARE in %",80%
same,pest or weed control at 80 g/ha,"[4]; Echinochloa crus-galli, pre-emergence, 504 h, application rate 80 g/ha, read-out: pre-emergence activity against ECHCG in %",100%
same,"percent crop plant damage (phytotoxicity) on Zea mays, post-emergence at 320 g/ha","Zea mays (ZEAMX); Zea mays, 504 h, read-out: post-emergence activity against ZEAMX in %",10%
same,percent crop plant damage at 80 g/ha,"Glycine max (GLXMA); Glycine max, 504 h, read-out: post-emergence activity against GLXMA in %",20%
same,pest or weed control at 80 g/ha,"Setaria viridis (SETVI) [10]; Setaria viridis, pre-emergence, 504 h, application rate 80 g/ha, read-out: pre-emergence activity against SETVI in %",100%
same,pest or weed control at 320 g/ha,"[9]; Echinochloa crus-galli, 504 h, read-out: post-emergence activity against ECHCG in %",90%
